In brackets after ≈: the same amount, converted by molar mass. Values belong to the compound of their own block, whether it stands above or below them.
Key:
Plasmodium falciparum [1] = assay: Antiplasmodial activity against Plasmodium falciparum Dd2 incubated for 48 hrs; format: functional, organism-based; conditions: Dd2, 48 h
Plasmodium falciparum [2] = assay: Antiplasmodial activity against Plasmodium falciparum 3D7 incubated for 48 hrs; format: functional, organism-based; conditions: 3D7, 48 h
Plasmodium falciparum [3] = assay: Antimalarial activity against Plasmodium falciparum K1 by 96-well microtitre plate method based scintillation counting analysis; format: functional, organism-based
Plasmodium falciparum [4] = assay: Antiplasmodial activity against Chloroquine resistant Plasmodium falciparum FcB1 incubated for 48 hrs; format: functional, organism-based; conditions: FcB1, 48 h
Plasmodium falciparum [5] = assay: Antimalarial activity against Plasmodium falciparum K14 incubated for 42 hrs in presence of 3H-hypoxanthine by top-count microbeta counter analysis; format: functional, organism-based
Plasmodium falciparum [6] = assay: Antimalarial activity against chloroquine sensitive Plasmodium falciparum D10 incubated for 72 hrs by spectrophotometric analysis; format: functional, organism-based; conditions: D10, 72 h
[7] = Cytotoxicity against HMEC-1 cells treated for 72 hrs by MTT assay; format: toxicity, cell-based; conditions: human
Plasmodium falciparum [8] = assay: Antimalarial activity against chloroquine resistant Plasmodium falciparum W2 incubated for 72 hrs by spectrophotometric analysis; format: functional, organism-based; conditions: W2, 72 h
Plasmodium berghei [9] = assay: In vivo plasmodial activity against Plasmodium berghei ANKA infected in Swiss mouse assessed as survival rate at 50 mg/kg, ip for 4 days after infection relative to control; format: functional; conditions: time 4 day
Plasmodium falciparum [10] = assay: Antiplasmodial activity against Chloroquine resistant Plasmodium falciparum FcB1 incubated for 48 hrs by SYBR green I based fluorescence assay; format: functional, organism-based; conditions: FcB1, 48 h
Plasmodium falciparum [11] = assay: Antimalarial activity against Plasmodium falciparum W2; format: functional, organism-based
Plasmodium falciparum [12] = assay: Antimalarial activity against Plasmodium falciparum D10; format: functional, organism-based
[13] = Cytotoxicity against HMEC-1 cells; format: toxicity, cell-based; conditions: human
Plasmodium falciparum [14] = assay: Antiplasmodial activity against Plasmodium falciparum K1; format: functional, organism-based
Plasmodium falciparum [15] = assay: Antimalarial activity against Plasmodium falciparum D6; format: functional, organism-based
Plasmodium berghei [16] = assay: Antimalarial activity against Plasmodium berghei; format: functional, organism-based
Plasmodium falciparum [17] = assay: Antimalarial activity against Plasmodium falciparum TM91C235; format: functional, organism-based
[18] = Cytotoxicity against human MRC5 cells incubated for 24 hrs by MTT assay; format: toxicity, cell-based
[19] = Cytotoxicity against […] LLC-PK1 cells incubated for 24 hrs by MTT assay; format: toxicity, cell-based, Sus scrofa; conditions: pig
HepG2 = assay: Cytotoxicity against human HepG2 cells incubated for 24 hrs by MTT assay; format: functional
Plasmodium falciparum [20] = assay: Antimalarial activity against Plasmodium falciparum W2 incubated for 24 hrs; format: functional, organism-based; conditions: for IC50: Plasmodium falciparum, W2, 24 h
A549 = assay: Cytotoxicity against human A549 cells incubated for 24 hrs by MTT assay; format: functional
Plasmodium falciparum [21] = assay: Antiplasmodial activity against Chloroquine resistant plasmodium falciparum FCR-3; format: functional, organism-based
Plasmodium falciparum [22] = assay: Antiplasmodial activity against chloroquine sensitive Plasmodium falciparum F-32 Tanzania incubated for 48 hrs; format: functional, organism-based
Plasmodium berghei [23] = assay: In vivo antiplasmodial activity against Chloroquine susceptible Plasmodium berghei ANKA infected in CD-1 mouse assessed as decrease in parasitaemia at 30 to 50 mg/kg/day, ip relative to control; format: functional; design: scale not given: the % may be the effect or the level left; conditions: dose 30-50 mg/kg/day
Plasmodium falciparum [24] = assay: Antimalarial activity against Plasmodium falciparum Dd2 treated for 48 hrs followed by hypoxanthine addition; format: functional, organism-based; conditions: Dd2, 48 h
Plasmodium falciparum [25] = assay: Antimalarial activity against Plasmodium falciparum Dd2 by 96-well microtitre plate method based scintillation counting analysis; format: functional, organism-based

- IC50 (Plasmodium falciparum [1]): 1600 nM
- IC50 (Plasmodium falciparum [2]): 1200 nM
SMILES: C/C=C/C1=C(O)C(=O)c2ccccc2C1=O

- IC50 (Plasmodium falciparum [1]): 1800 nM
- IC50 (Plasmodium falciparum [2]): 400 nM
SMILES: CCc1cc2c(o1)C(=O)c1ccccc1C2=O

- IC50 (Plasmodium falciparum [1]): 220 nM
- IC50 (Plasmodium falciparum [2]): 2400 nM
SMILES: CCCC/C=C/C1=C(O)C(=O)c2ccccc2C1=O

- IC50 (Plasmodium falciparum [11]): 214 nM
- IC50 (Plasmodium falciparum [15]): 63 nM
- IC50 (Plasmodium berghei [16]): 96.2 nM
- IC50 (Plasmodium falciparum [17]): 348 nM
SMILES: CCCCCC[C@H](C)CC1=C(O)C(=O)c2ccccc2C1=O

- IC50 (Plasmodium falciparum [20]): 15800 nM
SMILES: CC1(C)CCC2=C(O1)C(=O)c1ccccc1C2=O [ALPHA-LAPACHONE]
- CC50 at 24 h [18]: 2090 nM
- CC50 at 24 h [19]: 2090 nM
- CC50 (HepG2): 2090 nM
- CC50 (A549): 2090 nM

- IC50 (Plasmodium falciparum [22]): 800 nM
SMILES: COc1ccc(-n2cc(COC3=CC(=O)c4ccccc4C3=O)nn2)cc1F

- IC50 (Plasmodium falciparum [24]): 46 nM
SMILES: CC1=C(Cc2ccc(F)cc2)C(=O)c2ccccc2C1=O
- Activity (Plasmodium berghei [23]): 20.7%

- IC50 (Plasmodium falciparum [24]): 55 nM
SMILES: CC1=C(Cc2ccc(O)cc2)C(=O)c2ccccc2C1=O
- Activity (Plasmodium berghei [23]): 20.7%

- IC50 (Plasmodium falciparum [25]): 1.57 µg/mL (≈ 2.9 µM)
SMILES: Cc1cc2c(c(C3=C(O)C(=O)c4c(O)ccc(O)c4C3=O)c1)C(=O)c1c(O)c3c(c(O)c1C2=O)C=CC(C)(C)O3

- IC50 (Plasmodium falciparum [20]): 19500 nM
SMILES: CC1(C)OC2=C(CC1I)C(=O)c1ccccc1C2=O (centres undefined)

- IC50 (Plasmodium falciparum [20]): 2300 nM
SMILES: CC(=O)OC1=C(CC=C(C)C)C(=O)c2ccccc2C1=O
- IC100 (Plasmodium falciparum [20]; time 24 hrs): 4.7 µM

- IC50 (Plasmodium falciparum [25]): 1.63 µg/mL (≈ 6.41 µM)
SMILES: Cc1ccc2c(c1)C(=O)c1c(O)ccc(O)c1C2=O

More lines, now with the values behind:

SMILES: COc1cc(O)c(-c2c(C)cc(O)c3c2C(=O)c2ccc([C@H]4c5cccc(O)c5C(=O)c5c(O)cc(C)c(-c6c(O)cc(OC)c(C(C)=O)c6O)c54)c(O)c2C3=O)c(O)c1C(C)=O (stereo in doubt; 12)
- IC50 (Plasmodium falciparum [3]): 230 nM

SMILES: COc1cc2c(cc1O)CO[C@@H]1C3=C(OC[C@H]21)C(=O)c1ccccc1C3=O
- IC50 (Plasmodium falciparum [4]): 40 nM

SMILES: COc1cc2c(cc1O)[C@H]1COC3=C(C(=O)c4ccccc4C3=O)[C@H]1O2
- IC50 (Plasmodium falciparum [4]): ≥ 10000 nM

SMILES: CN(C)c1ccc(N2C(=O)C(Oc3ccc(Cl)cc3)C2c2ccc3c(c2)C(=O)c2ccccc2C3=O)cc1 (centres undefined)
- IC50 (Plasmodium falciparum [5]): 21000 nM

SMILES: CCC1=C(NC(=O)C(C)(C)C)C(=O)C2=C(NCCS2(=O)=O)C1=O
- IC50 (Plasmodium falciparum [6]): 390 nM
- IC50 at 72 h [7]: 1600 nM
- IC50 (Plasmodium falciparum [8]): 580 nM

SMILES: COc1ccc2c(c1)C(=O)C(=O)C1=C2OC(C)C1(C)C (centres undefined)
- Activity (Plasmodium berghei [9]): 100%
- IC50 (Plasmodium falciparum [10]): 845 nM

SMILES: O=C1c2ccccc2C(=O)c2cc(C3C(Oc4ccc(Cl)cc4)C(=O)N3c3cccc4ccccc34)ccc21 (centres undefined)
- IC50 (Plasmodium falciparum [5]): 45000 nM

SMILES: COC1=C(Cc2ccc(OC)cc2)C(=O)C2=C(NCCS2(=O)=O)C1=O
- IC50 (Plasmodium falciparum [11]): 1210 nM
- IC50 (Plasmodium falciparum [12]): 1220 nM
- IC50 [13]: 17900 nM

SMILES: O=C(O)c1ccc2c(n1)C(=O)C1=C(C2=O)S(=O)(=O)CCN1 [ACIDIATHIAZONE A]
- IC50 (Plasmodium falciparum [14]): 3300 nM

SMILES: CN(C)c1ccc(N2C(=O)C(Oc3ccccc3)C2c2ccc3c(c2)C(=O)c2ccccc2C3=O)cc1 (centres undefined)
- IC50 (Plasmodium falciparum [5]): 9000 nM

SMILES: COc1cc(O)c(-c2c(C)cc(O)c3c2C(=O)c2ccc([C@H]4c5cccc(O)c5C(=O)c5c(O)cc(C)c(-c6c(O)cc(OC)c(C(C)=O)c6O)c54)c(O)c2C3=O)c(O)c1C(C)=O (stereo in doubt; 11)
- IC50 (Plasmodium falciparum [3]; Plasmodium falciparum, K1): 140 nM

SMILES: COC(=O)/C(=C\CC/C(C)=C/CC/C(C)=C/CC1=CC(=O)C=C(C)C1=O)CCC=C(C)C
- IC50 (Plasmodium falciparum [21]): 8200 nM

SMILES: COC1=C(Cc2ccc(Cl)cc2)C(=O)C2=C(NCCS2(=O)=O)C1=O
- IC50 (Plasmodium falciparum [11]): 1630 nM
- IC50 (Plasmodium falciparum [12]): 1900 nM
- IC50 [13]: 8510 nM

SMILES: COC1=C(Cc2ccccc2)C(=O)C2=C(NCCS2(=O)=O)C1=O
- IC50 (Plasmodium falciparum [6]): 600 nM
- IC50 at 72 h [7]: 17600 nM
- IC50 (Plasmodium falciparum [8]): 700 nM

SMILES: CCC1=C(OC)C(=O)C2=C(C1=O)S(=O)(=O)CCN2
- IC50 (Plasmodium falciparum [6]): 2450 nM
- IC50 at 72 h [7]: > 100000 nM
- IC50 (Plasmodium falciparum [8]): 2370 nM

SMILES: O=C1C2=C(C(=O)c3ccccc31)[C@H]1OCc3cc4c(cc3[C@H]1CO2)OCO4
- IC50 (Plasmodium falciparum [4]): 280 nM

SMILES: O=C(O)c1cc2c(s1)C(=O)C1=C(C2=O)S(=O)(=O)C=CN1
- IC50 (Plasmodium falciparum [14]): 35 nM

SMILES: COc1cc2c(cc1O)[C@H]1COC3=C(C(=O)c4ccccc4C3=O)[C@H]1OC2
- IC50 (Plasmodium falciparum [4]): 30 nM

Reference: ChEMBL document CHEMBL5113376, “Antimalarial application of quinones: A recent update” (Eur J Med Chem, 2021)
